Patent US8877748B2, “Heterocyclic fused anthraquinone derivatives, manufacturing method and pharmaceutical composition using thereof” (National Defense Medical Center, priority 2012, dated 2014)

Columns and labels:
Format in all cases: cell-based, human
[1] = tested on: PC-3 prostate cancer cell line; assay: SRB assay cell viability, PC-3 prostate cancer cell line; settings: Homo sapiens, PC-3 prostate cancer cell line, Table II prints no unit, μM printed, read-out: SRB assay: 50% inhibition of cancer cell proliferation of sample concentration (IC50) of PC-3 prostate cancer cell line
CCRF-CEM = assay: NCI screening platform one-dose single concentration screening, leukemia CCRF-CEM; settings: 10 μM
HL-60, TB = assay: NCI one-dose screening, leukemia HL-60, TB; settings: 10 μM
MOLT-4 = assay: NCI one-dose screening, leukemia MOLT-4; settings: 10 μM
SR = assay: NCI one-dose screening, leukemia SR; settings: 10 μM
PRMI-8226 cell line = assay: NCI one-dose screening, leukemia PRMI-8226; settings: 10 μM
K562cell line = assay: NCI one-dose screening, leukemia K562; settings: 10 μM
EKVX = assay: NCI one-dose screening, non-small cell lung cancer EKVX; settings: 10 μM
HOP-62 = assay: NCI one-dose screening, non-small cell lung cancer HOP-62; settings: 10 μM
NCI-H226 = assay: NCI one-dose screening, non-small cell lung cancer NCI-H226; settings: 10 μM
NCI-H23 = assay: NCI one-dose screening, non-small cell lung cancer NCI-H23; settings: 10 μM
NCI-H322M = assay: NCI one-dose screening, non-small cell lung cancer NCI-H322M; settings: 10 μM; Non-small cell lung cancer
NCI-H460 = assay: NCI one-dose screening, non-small cell lung cancer NCI-H460; settings: 10 μM
NCI-H522 = assay: NCI one-dose screening, non-small cell lung cancer NCI-H522; settings: 10 μM
A549/ATCC = assay: NCI one-dose screening, non-small cell lung cancer A549/ATCC; settings: 10 μM
COLO 205 = assay: NCI one-dose screening, colon cancer COLO 205; settings: 10 μM
HCC-2998 = assay: NCI one-dose screening, colon cancer HCC-2998; settings: 10 μM
HCT-116 = assay: NCI one-dose screening, colon cancer HCT-116; settings: 10 μM
HCT-15 = assay: NCI one-dose screening, colon cancer HCT-15; settings: 10 μM
KM12 = assay: NCI one-dose screening, colon cancer KM12; settings: 10 μM
HT29 = assay: NCI one-dose screening, colon cancer HT29; settings: 10 μM
SF-268 = assay: NCI one-dose screening, CNS cancer SF-268; settings: 10 μM
SF-295 = assay: NCI one-dose screening, CNS cancer SF-295; settings: 10 μM
SF-539 = assay: NCI one-dose screening, CNS cancer SF-539; settings: 10 μM
SNB-19 = assay: NCI one-dose screening, CNS cancer SNB-19; settings: 10 μM
SNB-75 = assay: NCI one-dose screening, CNS cancer SNB-75; settings: 10 μM
U251 = assay: NCI one-dose screening, CNS cancer U251; settings: 10 μM
LOX IMVI = assay: NCI one-dose screening, melanoma LOX IMVI; settings: 10 μM
MALME-3M = assay: NCI one-dose screening, melanoma MALME-3M; settings: 10 μM
M14 = assay: NCI one-dose screening, melanoma M14; settings: 10 μM
UACC-62 = assay: NCI one-dose screening, melanoma UACC-62; settings: 10 μM
UACC-257 = assay: NCI one-dose screening, melanoma UACC-257; settings: 10 μM
SK-MEL-2 = assay: NCI one-dose screening, melanoma SK-MEL-2; settings: 10 μM
SK-MEL-28 = assay: NCI one-dose screening, melanoma SK-MEL-28; settings: 10 μM
SK-MEL-5 = assay: NCI one-dose screening, melanoma SK-MEL-5; settings: 10 μM
IGROV1 = assay: NCI one-dose screening, ovarian cancer IGROV1; settings: 10 μM
OVCAR-3 = assay: NCI one-dose screening, ovarian cancer OVCAR-3; settings: 10 μM
OVCAR-4 = assay: NCI one-dose screening, ovarian cancer OVCAR-4; settings: 10 μM
OVCAR-5 = assay: NCI one-dose screening, ovarian cancer OVCAR-5; settings: 10 μM
OVCAR-8 = assay: NCI one-dose screening, ovarian cancer OVCAR-8; settings: 10 μM
786-O = assay: NCI one-dose screening, renal cancer 786-O; settings: 10 μM
CAKI-1 = assay: NCI one-dose screening, renal cancer CAKI-1; settings: 10 μM
ACHN = assay: NCI one-dose screening, renal cancer ACHN; settings: 10 μM
SN12C = assay: NCI one-dose screening, renal cancer SN12C; settings: 10 μM
TK-10 = assay: NCI one-dose screening, renal cancer TK-10; settings: 10 μM
RXF, 393 = assay: NCI one-dose screening, renal cancer RXF, 393; settings: 10 μM
NCl/ADR-RES = assay: NCI one-dose screening, breast cancer NCl/ADR-RES; settings: 10 μM; listed under Ovarian cancer
MDA, -MB-435 = assay: NCI one-dose screening, breast cancer MDA, -MB-435; settings: 10 μM; listed under Melanoma

Structure (SMILES): CCSc1cc2c(c3nsnc13)C(=O)c1ccccc1C2=O [C16, 4-(ethylthio)anthra[2,1-c][1,2,5] thiadiazol-6,11-dione]
- IC50 [1]: 5.39 µM
- Growth Percent CCRF-CEM (CCRF-CEM): −35.53%
- Growth Percent HL-60(TB) (HL-60, TB): −45.01%
- Growth Percent MOLT-4 (MOLT-4): −50.44%
- Growth Percent SR (SR): −54.27%
- Growth Percent RPMI-8226 (PRMI-8226 cell line): −35.20%
- Growth Percent K562 (K562cell line): −44.64%
- Growth Percent EKVX (EKVX): 56.13%
- Growth Percent HOP-62 (HOP-62): 2.44%
- Growth Percent NCI-H226 (NCI-H226): 53.41%
- Growth Percent NCI-H23 (NCI-H23): −25.43%
- Growth Percent NCI-H322M (NCI-H322M): 89.71%
- Growth Percent NCI-H460 (NCI-H460): 27.92%
- Growth Percent NCI-H522 (NCI-H522): −88.01%
- Growth Percent A549/ATCC (A549/ATCC): 20.39%
- Growth Percent COLO 205 (COLO 205): 97.05%
- Growth Percent HCC-2998 (HCC-2998): 90.47%
- Growth Percent HCT-116 (HCT-116): −82.82%
- Growth Percent HCT-15 (HCT-15): 2.65%
- Growth Percent KM12 (KM12): 69.33%
- Growth Percent HT29 (HT29): 77.39%
- Growth Percent SF-268 (SF-268): −54.89%
- Growth Percent SF-295 (SF-295): 79.94%
- Growth Percent SF-539 (SF-539): −22.78%
- Growth Percent SNB-19 (SNB-19): 83.19%
- Growth Percent SNB-75 (SNB-75): 33.65%
- Growth Percent U251 (U251): −73.58%
- Growth Percent LOX IMVI (LOX IMVI): −91.42%
- Growth Percent MALME-3M (MALME-3M): −58.68%
- Growth Percent M14 (M14): 47.15%
- Growth Percent UACC-62 (UACC-62): −38.24%
- Growth Percent UACC-257 (UACC-257): −86.35%
- Growth Percent SK-MEL-2 (SK-MEL-2): −69.35%
- Growth Percent SK-MEL-28 (SK-MEL-28): −41.99%
- Growth Percent SK-MEL-5 (SK-MEL-5): −94.86%
- Growth Percent IGROV1 (IGROV1): −54.45%
- Growth Percent OVCAR-3 (OVCAR-3): −76.39%
- Growth Percent OVCAR-4 (OVCAR-4): −100.00%
- Growth Percent OVCAR-5 (OVCAR-5): 115.03%
- Growth Percent OVCAR-8 (OVCAR-8): −79.84%
- Growth Percent 786-0 (786-O): 80.27%
- Growth Percent CAKI-1 (CAKI-1): −1.76%
- Growth Percent ACHN (ACHN): −44.97%
- Growth Percent SN12C (SN12C): −61.79%
- Growth Percent TK-10 (TK-10): 103.17%
- Growth Percent RXF 393 (RXF, 393): −62.42%
- Growth Percent NCI/ADR-RES (NCl/ADR-RES): −37.28%
- Growth Percent MDA-MB-435 (MDA, -MB-435): −61.08%
